The values below come from ChEMBL document CHEMBL5126656, “Callintegers A and B, Unusual Tricyclo[4.4.0.09,10]tetradecane Clerodane Diterpenoids from Callicarpa integerrima with Inhibitory Effects on NLRP3 Inflammasome Activation” (J Nat Prod, 2022).

Experiment [1] has as its target NACHT, LRR and PYD domains-containing protein 3 (Mus musculus) (UniProt Q8R4B8). Briefly: Inhibition of NLRP3 inflammasome activation in LPS/nigericin-treated mouse J774A.1 cells assessed as decrease in pyroptosis at 20 uM pretreated for 0.5 hrs followed by stimulation with nigericin for 1 hr by fluorescent microscopic analysis. The settings on record: J774.A1, time 1.5 hrs. The experiment is classed as cell-based.

Experiment [2] has the same target. Briefly: Inhibition of NLRP3 inflammasome activation in LPS/nigericin-treated mouse J774A.1 cells assessed as decrease in caspase-1 level pretreated for 0.5 hrs followed by stimulation with nigericin for 1 hr by Western blot analysis. The class given is cell-based. To be noted: J774.A1, time 1.5 hrs. For orientation: In western blotting, separated proteins are transferred to a membrane and probed.

The target is the same in experiment [3]. Briefly: Inhibition of NLRP3 inflammasome activation in LPS/nigericin-treated mouse J774A.1 cells assessed as decrease in IL-1beta level pretreated for 0.5 hrs followed by stimulation with nigericin for 1 hr by Western blot analysis. The settings on record: J774.A1, time 1.5 hrs. The experiment is classed as cell-based.
Experiment [4] addresses NACHT, LRR and PYD domains-containing protein 3 (Mus musculus, UniProt Q8R4B8). Briefly: Inhibition of NLRP3 inflammasome activation in LPS/nigericin-treated mouse J774A.1 cells assessed as decrease in IL-1beta level pretreated for 0.5 hrs followed by stimulation with nigericin for 1 hr by ELISA. The class given is cell-based, J774.A1.

The source made the active and inactive calls. The rule behind the calls is not given here.

Chain of NACHT, LRR and PYD domains-containing protein 3 (Mus musculus) (Q8R4B8 whole entry, the tested form may be a part): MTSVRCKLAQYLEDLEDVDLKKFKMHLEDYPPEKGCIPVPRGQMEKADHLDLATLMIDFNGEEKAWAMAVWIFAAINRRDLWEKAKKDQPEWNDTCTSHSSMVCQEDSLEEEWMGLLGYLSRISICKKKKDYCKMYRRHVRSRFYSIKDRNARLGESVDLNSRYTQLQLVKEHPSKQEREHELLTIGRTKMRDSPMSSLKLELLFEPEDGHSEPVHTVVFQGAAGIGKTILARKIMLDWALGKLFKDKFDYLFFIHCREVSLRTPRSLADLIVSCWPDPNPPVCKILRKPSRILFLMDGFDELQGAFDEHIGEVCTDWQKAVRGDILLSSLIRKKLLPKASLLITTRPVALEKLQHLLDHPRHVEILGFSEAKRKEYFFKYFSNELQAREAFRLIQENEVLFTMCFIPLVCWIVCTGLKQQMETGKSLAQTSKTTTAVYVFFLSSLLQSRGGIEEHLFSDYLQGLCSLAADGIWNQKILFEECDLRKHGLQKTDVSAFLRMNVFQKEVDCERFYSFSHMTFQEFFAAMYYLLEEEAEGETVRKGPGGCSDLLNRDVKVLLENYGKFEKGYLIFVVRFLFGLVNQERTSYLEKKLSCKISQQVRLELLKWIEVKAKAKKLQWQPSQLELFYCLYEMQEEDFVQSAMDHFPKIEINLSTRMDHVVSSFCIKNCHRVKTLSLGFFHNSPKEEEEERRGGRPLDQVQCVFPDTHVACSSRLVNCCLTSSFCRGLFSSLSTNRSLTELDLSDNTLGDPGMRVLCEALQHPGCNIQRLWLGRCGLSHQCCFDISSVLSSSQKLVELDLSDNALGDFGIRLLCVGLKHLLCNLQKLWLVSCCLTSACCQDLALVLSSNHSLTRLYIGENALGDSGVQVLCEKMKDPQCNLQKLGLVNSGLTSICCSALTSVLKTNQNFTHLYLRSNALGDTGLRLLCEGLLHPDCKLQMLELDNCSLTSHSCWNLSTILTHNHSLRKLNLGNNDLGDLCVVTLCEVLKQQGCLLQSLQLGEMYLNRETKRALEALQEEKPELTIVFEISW
Chain of NACHT, LRR and PYD domains-containing protein 3 (Q8R4B8 whole entry, the tested form may be a part): as above

Take `C=C1[C@@H](OC(C)=O)CC[C@]23C=C(C=O)[C@@H](OC(C)=O)C[C@@]2(C)[C@H](C)CC[C@@]13C`: the inhibition result in experiment [1], in experiment [2] and in experiment [3] was “Active” in each case. Besides, the 50% inhibitory concentration (IC50) in experiment [4] amounted to 5500 nM.
For `CC(C)(O)c1coc(S(=O)(=O)NC(=O)Nc2c3c(cc4c2CCC4)CCC3)c1`, the half-inhibitory concentration (IC50) in experiment [4] is 23.1 nM.

The IC50 is the concentration that inhibits the measured activity by half.
